Data reported in PMC12698583, “Efficacy of sulfonamides targeting malic enzyme in an animal model of Chagas disease” (Frontiers in Pharmacology, 2025).

Assays:
[1] = Lipophilicity assay (LogD at pH 7.4), shake flask; format: physicochemical; conditions: pH 7.4, n-octanol/phosphate buffer
Procedure: For this assay, an aqueous phosphate buffer solution at pH 7.4, saturated with n-octanol, was prepared, along with an n-octanol solution saturated with the aqueous phase at pH 7.4. Both solutions were mechanically stirred (using a magnetic stir bar and a Corning magnetic stirrer) at room temperature for 24 h, followed by a 24-hour resting period to ensure complete phase separation. Different phase ratios were prepared from these solutions in the following aqueous phase/n-octanol ratios: 1:1, 1:10, 1:100, and 1:300, to ensure that the substances were evaluated under non-saturating conditions. Stock solutions of each compound were prepared in DMSO at a concentration of 20 mM. From these stock solutions, standard solutions at a concentration of 30 µM in phosphate buffer pH 7.4 were obtained and used in each partition system, performed in triplicate. To reach equilibrium, the vials containing the samples were shaken for 90 min at room temperature using a roller shaker (Basic First Lab Orbital).

[2] = Caco-2 permeability assay; format: in vitro ADME; conditions: human, Caco-2; apical to basolateral, 0.1 mM, 120 min
Procedure: (§1) Caco-2 cells (2.5 × 10^5) were cultured on 12 mm diameter filters with DMEM-PEST medium in an incubator at 37 °C and 10% CO2. Monolayer formation was monitored through transepithelial electrical resistance (TEER). […] The assay was conducted under orbital shaking at 37 °C. […] Compound quantification was performed using the HPLC-UV method, following the previously adjusted chromatographic conditions and parameters. At the end of the experiment, monolayer integrity was confirmed by measuring TEER.

Caco-2 cells = assay: Caco-2 permeability assay; format: in vitro ADME
Procedure: as §1

[3] = Metabolic stability in human liver microsomes; format: in vitro ADME; conditions: for half-life at 1 μM / microsomal CLint at 1 μM: pooled liver microsomes, pH 7.4, human liver microsomes; for half-life at 1 μM: 0.25 mg/mL, read-out: T1/2 human; for microsomal CLint at 1 μM: read-out: CL int. mic.; for parent compound remaining: human microsomes
Procedure: The in vitro metabolic stability of the compound was evaluated in pooled human liver microsomes (HLM, 20 mg/mL), Sprague-Dawley rat liver microsomes (RLM, 20 mg/mL), and CD-1 mouse liver microsomes (MLM, 20 mg/mL), all purchased from GIBCO (Thermo Fisher Scientific). NADPH regenerating system (GentestTM) was prepared in potassium phosphate buffer (100 mM, pH 7.4). […] The reaction was stopped by adding acetonitrile, followed by vortex homogenization, sonication for 5 min, and centrifugation at 10,000 g for 5 min at 4 °C. The supernatants were transferred to glass vials for LC-MS/MS analysis. The half-life was estimated based on the area under the curve (AUC) through regression analysis of the concentration decay over time. This calculation was performed using the following formula: t1/2=LN2/Kel
Where LN is the neperian logarithm, and K is the slope of the regression of the LN of AUC as a function of time. Then, the microsomal intrinsic clearance (CLint, mic) was calculated using the following equation: CLint.mic=LN2/t1/2 x VI/PM
Where V is the incubation volume (µL), and PM is the microsomal protein concentration (mg). This intrinsic clearance can be extrapolated to the whole liver (CLint,hep) using the following equation: CLint.hep=CLint.mic x ML x LB
ML is the microsomal yield, and LB is the liver weight (g) per kilogram of body weight.
To ensure the linearity of the elimination phase and to avoid the influence of points outside the log-linear range, the points deviated from the expected first-order kinetic profile were excluded. The supernatants were analyzed by UPLC-Xevo-TQ-XS from Waters. Chromatographic separation was performed on an Acquity UPLC BEH C18 column (2.1 × 100 mm, 1.7 µm particle size), maintained at 40 °C. The mobile phases were (A) water with 0.1% formic acid and (B) acetonitrile with 0.1% formic acid. […] The total run time was 5 min.

Row | SMILES | logD at 90 min [1] | Papp at 120 min, 0.1 mM [2] [nm/s] | Caco-2 permeability classification (in words) (Caco-2 cells) | half-life at 1 μM [3] [min] | microsomal CLint at 1 μM [3] [µL/min/mg] | parent compound remaining ([3]; 5 min) [%] | parent compound remaining ([3]; 60 min)
1 | CC(C)Oc1ccc(NS(=O)(=O)c2cccc(NC(=O)c3cnccn3)c2)cc1 [AC-M110, N-(3-(N-(4-isopropoxyphenyl)sulfamoyl)phenyl)pyrazine-2-carboxamide] | 3 | 207 | approaching high permeability classification | 6 | 97 |  | 
2 | COc1ccc(NS(=O)(=O)c2cccc(NC(=O)c3cnccn3)c2)cc1 [AC-R008, N-(3-(N-(4-methoxyphenyl)sulfamoyl)phenyl)pyrazine-2-carboxamide] | 2.5 | 97.1 | near the lower limit for moderate permeability | 7 | 78 | 47 | about 1%
